Measured values published in patent publication US11786543B2, “Compositions comprising decitabine and tetrahydrouridine and uses thereof” (The Board of Trustees of the University of Illinois, priority 2008, dated 2023).
Values joined by “and” are separate entries in the source; they are usually repeats but may differ in a detail not shown here. Equal values may be shown once.

Legend:
baboons = assay: Pharmacodynamic responses (HbF %, neutrophil counts) to decitabine with or without THU in baboons; format: in vivo, baboon; design: ANC nadir: unit not given here
Method: Fetal hemoglobin expression, HbF %, pre and post treatment with the indicated dose of decitabine. […] Oral treatment was with decitabine or a slightly modified decitabine (decitabine-mesylate—Dac-m).
Decitabine was administered at the doses indicated in two consecutive blocks of 5 days each. THU at the indicated doses was administered 60 minutes before each decitabine dose.

[1] = tested on: Reno-1 renal cell cancer xenograft; conditions: mouse, in vivo
Method: In an effort to apply the proposed formulation and regimen to treat different cancer histologies, a renal cell cancer cell-line (Reno-1) was developed from a surgical sample of renal cancer and used in a xeno-transplantation experiment. […] The percentage of necrosis in each tissue section was evaluated in a blinded fashion.

[2] = tested on: normal hematopoietic precursors; format: cell-based; conditions: DAC 0.5 μM, equimolar Ara-C, clinically relevant levels of HU; measured D6
Method: Measurement was performed on D6.
Normal CD34 cells were isolated from cord blood. […] Equimolar levels of AraC were used as positive controls. […] Twenty-four hours after DAC or AraC exposure, apoptosis was measured by flow-cytometric assessment for annexin staining. Double annexin/7-aminoactinomycin D (7AAD)-positive cells represent late apoptosis/necrosis. […] Results are expressed as a percentage of vehicle treated controls.
(§1) AraC, a cytidine analog that terminates DNA chain synthesis, was used as a positive control for DNA damage and apoptosis induction.

normal CD34+ cells = assay: Cell counts, morphology and colony formation; format: cell-based; conditions: non-DNA-damaging DNMTI-depleting decitabine; Ara-C equimolar
Description: The Kasumi-1 cell-line is derived from a patient with AMLI-ETO leukemia and represents a late-stage model of transformation and malignant evolution.

[3] = tested on: normal CD34+ hematopoietic cells; assay: DNA damage (Fast Micromethod for DNA scission, γH2AX flow cytometry); conditions: decitabine 0.5 μM D1,3,5; Ara-C 0.5 μM D1,3,5; hydroxyurea 500 μM D1-5; measured D6
Method: Measurement was performed on D6.
Dark histogram=isotype control for flow-cytometricanalysis. Light histograms show the γH2AX staining for untreated control cells. Measurement was performed on D6.
Normal CD34 cells were isolated from cord blood. DAC 0.005 μM was added once daily on days 1-4 and DNMT1 was quantified by Western blot on day 5. […] Twenty-four hours after DAC or AraC exposure, DNA damage was measured by flow-cytometric assessment for phosphorylation of histone H2AX (γH2AX; B) or the Fast Micromethod for DNA scission (FIG. 19C). Equimolar levels of AraC were used as positive controls. Gray histogram is the isotype control. […] Twenty-four hours after DAC or AraC exposure, apoptosis was measured by flow-cytometric assessment for annexin staining. Double annexin/7-aminoactinomycin D (7AAD)-positive cells represent late apoptosis/necrosis. […] Results are expressed as a percentage of vehicle treated controls.
as §1

[4] = Decitabine plasma pharmacokinetics in baboons (LC/MS)
Method: Baboons were treated with IV decitabine 0.5 mg/kg (2 animals), SQ decitabine 0.5 mg/kg (2 animals), or oral decitabine 10 mg/kg (2 animals).
Decitabine was administered to two baboons IV (0.5 mg/kg), SQ (0.5 mg/kg) and orally (10 mg/kg). Blood was collected at 7 time-points and plasma concentrations were determined using an LC/MS/MS method adapted from a previously published method 26.
AUClast refers to the area under a plotted plasma concentration-time curve (not shown) at the last recorded timepoint.
Two baboons (PA7484 and PA7470) were administered oral THU 20 mg/kg (400 mg/m^2) 60 minutes prior to oral decitabine 5 mg/kg, or decitabine alone. After a wash-out period of greater than 2 weeks, these same two animals were administered oral THU 2 mg/kg […] 60 minutes prior to oral decitabine 5 mg/kg, or oral decitabine alone. […] Decitabine levels were measured at various timepoints by LC-MS. […]
To compare the effect of different routes of administration on the DAC concentration-time profile, plasma DAC levels were compared after IV or SC administration versus oral administration to the same animals (washout period of ≥2 weeks between drug administrations to the same animal). […] Blood was collected for up to 7 time-points after administration and plasma concentrations were determined using LC/MSMS. […]

[5] = Oral 9.35 mg/kg/d, individual baboons, 9.35 mg/kg/day
[6] = Oral 18.7 mg/kg/d, individual baboons

Question: Which results are given for `CS(=O)(=O)O.Nc1ncn([C@H]2C[C@H](O)[C@@H](CO)O2)c(=O)n1` [Dac-m, decitabine-mesylate]?
Answer: ANC nadir (baboons; Oral 4.1 mg/kg/d, baboon 7001): 1417; Post-HbF % (baboons; Oral 4.1 mg/kg/d, baboon 7001): 13.1%; ANC nadir (baboons; Oral 6.7 mg/kg/d, baboon 7002): 481; Post-HbF % (baboons; Oral 6.7 mg/kg/d, baboon 7002): 31.4%; ANC nadir (baboons; [5]): 463 and 2000; Post-HbF % (baboons; [5]): 62.3% and 40.5%; ANC nadir (baboons; [6]): 1659; Post-HbF % (baboons; [6]): 67.8%

Question: Which “sensitivity of the tumor to standard agents” value [1] does the source give for “avastin: standard agent used to treat renal cancer” here?
Answer: The value was “relatively resistant”.

Question: Which results are given for `Nc1ccn([C@@H]2O[C@H](CO)[C@@H](O)[C@@H]2O)c(=O)n1` [Ara-C, cytosine arabinoside]?
Answer: apoptosis (annexin V-FITC and 7AAD double staining) [2]: cause significant apoptosis and cell-death; cell counts (normal CD34+ cells): more devastating to normal cells; DNA damage (Fast Micro-method for DNA scission, γH2AX) [3]: cause significant DNA damage

Question: With `O=C1NC(O)CCN1[C@@H]1O[C@H](CO)[C@@H](O)[C@H]1O` (some centres unmarked) [THU, Tetrahydrouridine] as the compound, how does the “DAC concentrations, THU 400 mg/m^2 versus THU 40 mg/m^2” value ([4]; 60 minutes before DAC 100 mg/m^2, PA7470 and PA7484) read?
Answer: Its value is “produced higher DAC concentrations”.

Question: What about the “DAC concentrations, THU 60 minutes before versus simultaneously or 30 minutes before DAC” value ([4]; in vivo) of the same compound?
Answer: Its value is “produced higher DAC concentrations”.
